Laboratory results reported in patent US20240183843A1, “METHOD FOR EVALUATING EXCRETION OF SUBSTANCE OF INTEREST BY HUMAN HEPATOCYTE-LIKE CELL” (JSR Corporation, priority 2020, published 2024).

How the values were obtained:
[1] = target: T1, MRP2 (Homo sapiens, UniProt Q92887); assay: CDFDA excretion of present evaluation model, microscopy; format: in vitro ADME; conditions: CDFDA 2 μM, 5 µM, or 10 µM, 37°C, 30 min, 5% CO2; FIG. 5
T1 construct: host or cells: human hepatocyte-like cells (sac-like material) cultured from human primary hepatocytes
T1 sequence (Q92887 whole entry): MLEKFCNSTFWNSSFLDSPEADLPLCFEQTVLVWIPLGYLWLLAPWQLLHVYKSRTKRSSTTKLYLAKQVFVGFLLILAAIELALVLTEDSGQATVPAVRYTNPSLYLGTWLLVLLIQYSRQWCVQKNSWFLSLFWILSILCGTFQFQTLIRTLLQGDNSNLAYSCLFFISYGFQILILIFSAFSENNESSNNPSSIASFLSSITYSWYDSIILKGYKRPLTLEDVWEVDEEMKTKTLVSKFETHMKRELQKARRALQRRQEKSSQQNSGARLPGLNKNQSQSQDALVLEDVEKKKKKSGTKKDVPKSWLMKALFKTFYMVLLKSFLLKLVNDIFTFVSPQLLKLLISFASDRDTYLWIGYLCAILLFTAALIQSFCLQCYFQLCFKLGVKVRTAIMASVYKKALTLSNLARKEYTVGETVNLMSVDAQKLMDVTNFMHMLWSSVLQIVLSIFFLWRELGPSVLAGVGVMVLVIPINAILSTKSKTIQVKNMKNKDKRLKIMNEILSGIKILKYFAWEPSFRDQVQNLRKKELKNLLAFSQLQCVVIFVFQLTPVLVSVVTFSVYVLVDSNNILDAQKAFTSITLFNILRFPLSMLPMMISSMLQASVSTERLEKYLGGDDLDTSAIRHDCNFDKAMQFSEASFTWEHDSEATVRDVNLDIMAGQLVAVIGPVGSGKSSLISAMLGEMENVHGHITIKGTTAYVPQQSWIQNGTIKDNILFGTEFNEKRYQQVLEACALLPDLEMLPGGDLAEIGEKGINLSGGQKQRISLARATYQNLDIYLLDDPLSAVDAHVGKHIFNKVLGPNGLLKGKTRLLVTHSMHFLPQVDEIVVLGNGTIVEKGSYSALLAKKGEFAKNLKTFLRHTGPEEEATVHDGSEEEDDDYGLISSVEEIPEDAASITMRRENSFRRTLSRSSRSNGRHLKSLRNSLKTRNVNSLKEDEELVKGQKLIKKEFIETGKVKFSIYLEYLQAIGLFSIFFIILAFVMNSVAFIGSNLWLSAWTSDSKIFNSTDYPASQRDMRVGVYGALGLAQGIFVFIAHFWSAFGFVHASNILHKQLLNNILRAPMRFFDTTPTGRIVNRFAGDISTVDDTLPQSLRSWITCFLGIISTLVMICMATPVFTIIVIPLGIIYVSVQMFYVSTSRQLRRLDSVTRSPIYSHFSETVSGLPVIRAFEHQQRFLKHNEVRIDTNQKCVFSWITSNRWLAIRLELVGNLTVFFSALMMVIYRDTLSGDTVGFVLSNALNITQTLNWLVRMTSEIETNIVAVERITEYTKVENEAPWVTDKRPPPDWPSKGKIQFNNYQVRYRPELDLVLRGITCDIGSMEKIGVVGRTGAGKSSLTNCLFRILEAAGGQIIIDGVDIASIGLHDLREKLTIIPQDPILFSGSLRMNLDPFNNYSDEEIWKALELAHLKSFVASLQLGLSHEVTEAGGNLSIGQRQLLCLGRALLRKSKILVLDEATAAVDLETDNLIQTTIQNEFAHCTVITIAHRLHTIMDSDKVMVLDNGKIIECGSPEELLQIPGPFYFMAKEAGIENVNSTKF
Method: (§1) The culture of human liver cells after the subculturing in Experimental Example 1, the culture medium in Table 1, and 2% by volume of Matrigel with respect to the culture medium were added to a 6-well culture plate (manufactured by Sumitomo Bakelite Co., Ltd., MS-8006R), followed by the suspension culture at 37° ° C. for 3 days in the presence of 5% by volume of CO2 to form a sac-like material.
(§2) In Experimental Example 2, 2 μM, 5 µM, or 10 µM of carboxydichlorofluorescein diacetate (CDFDA), which is a substrate of MRP2, was added to the culture solution after the suspension culture. The incorporation of the CDFDA into the inner cavity of the present evaluation model was carried out at 37 °C for 30 min in the presence of 5% by volume of CO2. A culture solution containing the present evaluation model was placed in a low-adsorption 15 ml tube by pipetting, followed by centrifugation.

[2] = target: T2, P-glycoprotein (P-gp) (Homo sapiens, UniProt P08183); assay: Quantification of Rho123 incorporated into inner cavity of present evaluation model by LC/MS; format: in vitro ADME; parameters: In the obtained culture, an inner cavity due to the membrane of the human hepatocyte-like cell was formed; host or cells: human hepatocyte-like cells (organoid or sac-like material) cultured from human primary hepatocytes; conditions: Rho123 10 μM in culture solution, 37°C, 30 min
T2 sequence (P08183 whole entry): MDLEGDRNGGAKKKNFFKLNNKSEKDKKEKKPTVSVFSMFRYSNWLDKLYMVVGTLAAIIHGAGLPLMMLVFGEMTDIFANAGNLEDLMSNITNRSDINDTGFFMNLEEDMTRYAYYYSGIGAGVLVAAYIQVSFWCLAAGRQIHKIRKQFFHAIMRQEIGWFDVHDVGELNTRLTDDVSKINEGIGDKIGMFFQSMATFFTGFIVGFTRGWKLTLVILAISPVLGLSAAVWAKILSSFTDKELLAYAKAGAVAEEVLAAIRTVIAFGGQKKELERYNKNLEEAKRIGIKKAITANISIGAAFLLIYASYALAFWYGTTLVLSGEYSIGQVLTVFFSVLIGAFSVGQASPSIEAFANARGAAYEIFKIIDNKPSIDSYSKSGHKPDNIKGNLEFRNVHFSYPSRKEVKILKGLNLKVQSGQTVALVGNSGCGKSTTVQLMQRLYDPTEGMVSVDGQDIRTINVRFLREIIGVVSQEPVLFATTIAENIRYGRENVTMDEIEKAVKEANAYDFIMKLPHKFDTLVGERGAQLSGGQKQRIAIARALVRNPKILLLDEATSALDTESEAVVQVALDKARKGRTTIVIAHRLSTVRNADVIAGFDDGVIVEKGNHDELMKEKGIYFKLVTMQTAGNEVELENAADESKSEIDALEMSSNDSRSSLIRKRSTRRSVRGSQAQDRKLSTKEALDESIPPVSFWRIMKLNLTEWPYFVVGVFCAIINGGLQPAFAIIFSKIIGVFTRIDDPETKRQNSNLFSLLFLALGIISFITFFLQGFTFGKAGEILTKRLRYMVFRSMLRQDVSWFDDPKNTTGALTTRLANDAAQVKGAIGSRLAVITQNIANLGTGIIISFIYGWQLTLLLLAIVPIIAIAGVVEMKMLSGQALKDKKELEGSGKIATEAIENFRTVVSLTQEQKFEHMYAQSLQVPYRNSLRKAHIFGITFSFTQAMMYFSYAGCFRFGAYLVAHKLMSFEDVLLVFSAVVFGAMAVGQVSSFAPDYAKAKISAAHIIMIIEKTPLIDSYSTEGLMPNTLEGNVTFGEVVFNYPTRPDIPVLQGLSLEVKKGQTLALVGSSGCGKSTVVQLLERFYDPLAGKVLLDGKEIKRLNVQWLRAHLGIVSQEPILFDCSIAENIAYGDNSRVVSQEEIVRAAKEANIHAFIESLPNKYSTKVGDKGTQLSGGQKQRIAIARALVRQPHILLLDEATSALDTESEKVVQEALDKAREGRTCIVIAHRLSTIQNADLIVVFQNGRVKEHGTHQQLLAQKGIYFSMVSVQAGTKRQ
Method: as §1
as §2, with “Rho123 (10 μM),” for “2 μM, 5 µM, or 10 µM of carboxydichlorofluorescein diacetate (CDFDA),”, “for P-glycoprotein (P-gp),” for “of MRP2,”, “Rho123” for “CDFDA”, “mL” for “ml”
The present evaluation model of Experimental Example 3, into which Rho123 had been incorporated, was mixed with methanol to kill the human hepatocyte-like cells. After mixing, centrifugation was carried out to extract the supernatant. The supernatant was subjected to analysis by a liquid chromatography-mass spectrometer (LC/MS) (manufactured by SHIMADZU CORPORATION, LCMSTM-8040), and from the concentration and amount of the Rho123 incorporated into the inner cavity and the concentration of the Rho123 in the culture solution, the proportion of the present evaluation model transported into the inner cavity was calculated.
• Column: Xbridge C18 3.5 μm, 2.1 mm×50 mm • Column temperature: 40° ° C. • Internal standard substance: Tolbutamine • Elution solvent: A solution (a 0.1% by mass formic acid solution), B solution (acetonitrile) • Gradient conditions: see Table 2 • Runtime: 7 minutes • Flow rate: 0.4 mL/min • Injection volume: 3 μL
• Mode: Positive (*the standard substance is in a negative mode)

[3] = target: T2, P-glycoprotein (P-gp)
Method: Rho123 (10 μM) was added to the culture solution containing the culture embedded in Matrigel after the culturing prepared in Experimental Example 1, and the incorporation of the Rho123 into the inner cavity of the culture was carried out at 37° C. for 30 min in the presence of 5% by volume of CO2.
The polymerized Matrigel was degraded by pipetting and enzymatic treatment (Corning (registered trade name) Cell Recovery Solution) in order to measure the amount of the incorporated Rho123.

[4] = target: T2, P-glycoprotein (P-gp); assay: Rho123 excretion of present evaluation model (sac-like material, suspension culture), fluorescence microscopy; format: in vitro ADME; parameters: In the obtained culture, an inner cavity due to the membrane of the human hepatocyte-like cell was formed; host or cells: human hepatocyte-like cells (organoid or sac-like material) cultured from human primary hepatocytes; conditions: Rho123 10 μM, 37°C, 30 min, 5% CO2; sac-like material of human hepatocyte-like cells, 2% by volume Matrigel suspension culture; FIG. 2A/2B
Method: as §1
as §2, with “Rho123 (10 μM),” for “2 μM, 5 µM, or 10 µM of carboxydichlorofluorescein diacetate (CDFDA),”, “for P-glycoprotein (P-gp),” for “of MRP2,”, “Rho123” for “CDFDA”, “mL” for “ml”

Row | Proportion transported into present evaluation model ([2]; calculated from concentration and amount in inner cavity and concentration in culture solution) | Amount of Rho123 in present evaluation model ([2]; methanol extraction, LC/MS) | Concentration of Rho123 in present evaluation model ([2]; methanol extraction, LC/MS) | Compound | Excretion into the inner cavity of the present evaluation model (microscopy) [1] | Incorporation into the inner cavity of the culture (microscopy) [3] | Excretion into the inner cavity of the present evaluation model (microscopy) [4]
1 |  |  |  | carboxydichlorofluorescein diacetate [CDFDA] | excreted into the inner cavity of the present evaluation model |  | 
2 | 1.23% | 0.123 nmol | 615.4 nM | COC(=O)c1ccccc1-c1c2ccc(=N)cc-2oc2cc(N)ccc12.Cl [Rho123] |  | incorporation of Rho123 into the inner cavity of the culture was confirmed | excreted into the inner cavity of the present evaluation model
